Experiments:
[1] = system: weed plants such as Sinapis alba, Echinochloa crus-galli, Lolium multiflorum, Chrysanthemum segetum, Setaria viridis, Abutilon theophrasti, Amaranthus …; assay: Post-emergence effect on weeds (greenhouse pot test, visual scoring); assay type: in vivo; details: applied post-emergence (three-leaf stage) at a rate of 0.3 kg or less of active substance per hectare; scored after about 3 to 4 weeks in comparison to untreated controls
[2] = system: weed plants such as Sinapis alba, Chrysanthemum segetum, Avena sativa, Stellaria media, Echinochloa crus-galli, Lolium multiflorum, Setaria viridis, Abutilon …; assay: Pre-emergence effect on weeds (greenhouse pot test, visual scoring); assay type: in vivo; details: applied pre-emergence at a rate of 0.3 kg or less of active substance per hectare; scored after 3 to 4 weeks in comparison to untreated controls

Row | Compound | herbicidal action against weed plants (effect scored visually) [1] | herbicidal action against weed plants (visual scoring of plant damage or emergence damage) [2]
1 | CCCOc1nn(C(=O)NS(=O)(=O)c2c(I)cccc2OS(C)(=O)=O)c(=O)n1C1CC1 [Compound 1.718] | very good herbicidal action | very good herbidical action
2 | COc1nn(C(=O)NS(=O)(=O)c2c(I)cccc2OS(=O)(=O)N(C)C)c(=O)n1C [Compound 1.749] | very good herbicidal action | very good herbidical action
3 | CCCOc1nn(C(=O)NS(=O)(=O)c2c(I)cccc2OS(=O)(=O)N(C)C)c(=O)n1C [Compound 1.751] | very good herbicidal action | very good herbidical action
4 | CC(C)Oc1nn(C(=O)NS(=O)(=O)c2c(I)cccc2OS(=O)(=O)N(C)C)c(=O)n1C [Compound 1.752] | very good herbicidal action | very good herbidical action
5 | COc1nn(C(=O)NS(=O)(=O)c2c(I)cccc2OS(=O)(=O)N(C)C)c(=O)n1C1CC1 [Compound 1.754] | very good herbicidal action | very good herbidical action
6 | CCOc1nn(C(=O)NS(=O)(=O)c2c(I)cccc2OS(=O)(=O)N(C)C)c(=O)n1C1CC1 [Compound 1.755] | very good herbicidal action | very good herbidical action
7 | CCCOc1nn(C(=O)NS(=O)(=O)c2c(I)cccc2OS(=O)(=O)N(C)C)c(=O)n1C1CC1 [Compound 1.756] | very good herbicidal action | very good herbidical action
8 | Cc1cccc(I)c1S(=O)(=O)NC(=O)n1nc(C2CC2)n(C2CC2)c1=O [Compound 1.815] | very good herbicidal action | very good herbidical action
9 | COc1ccc(Cl)c(I)c1S(=O)(=O)NC(=O)n1nc(OC)n(C)c1=O [Compound 1.816] | very good herbicidal action | very good herbidical action
10 | CCOc1nn(C(=O)NS(=O)(=O)c2c(OC)ccc(Cl)c2I)c(=O)n1C [Compound 1.817] | very good herbicidal action | very good herbidical action
11 | CCCOc1nn(C(=O)NS(=O)(=O)c2c(OC)ccc(Cl)c2I)c(=O)n1C [Compound 1.818] | very good herbicidal action | very good herbidical action
12 | COc1ccc(Cl)c(I)c1S(=O)(=O)NC(=O)n1nc(OC(C)C)n(C)c1=O [Compound 1.819] | very good herbicidal action | very good herbidical action
13 | COc1ccc(Cl)c(I)c1S(=O)(=O)NC(=O)n1nc(OC)n(C2CC2)c1=O [Compound 1.820] | very good herbicidal action | very good herbidical action
14 | CCCOc1nn(C(=O)NS(=O)(=O)c2c(OC)ccc(Cl)c2I)c(=O)n1C1CC1 [Compound 1.822] | very good herbicidal action | very good herbidical action
15 | COc1nn(C(=O)NS(=O)(=O)c2ccc(F)cc2I)c(=O)n1C [Compound 1.823] | very good herbicidal action | very good herbidical action
16 | CCCOc1nn(C(=O)NS(=O)(=O)c2ccc(F)cc2I)c(=O)n1C [Compound 1.824] | very good herbicidal action | very good herbidical action
17 | COc1nn(C(=O)NS(=O)(=O)c2ccc(F)cc2I)c(=O)n1C1CC1 [Compound 1.825] | very good herbicidal action | very good herbidical action
18 | CCCOc1nn(C(=O)NS(=O)(=O)c2ccc(F)cc2I)c(=O)n1C1CC1 [Compound 1.827] | very good herbicidal action | very good herbidical action
19 | COc1nn(C(=O)NS(=O)(=O)c2cccc(Cl)c2I)c(=O)n1C [Compound 1.828] | very good herbicidal action | very good herbidical action

Row | Compound | herbicidal action against weed plants (effect scored visually) [1] | herbicidal action against weed plants (visual scoring of plant damage or emergence damage) [2]
20 | CCOc1nn(C(=O)NS(=O)(=O)c2cccc(Cl)c2I)c(=O)n1C [Compound 1.829] | very good herbicidal action | very good herbidical action
21 | CCCOc1nn(C(=O)NS(=O)(=O)c2cccc(Cl)c2I)c(=O)n1C [Compound 1.830] | very good herbicidal action | very good herbidical action
22 | CC(C)Oc1nn(C(=O)NS(=O)(=O)c2cccc(Cl)c2I)c(=O)n1C [Compound 1.831] | very good herbicidal action | very good herbidical action
23 | COc1nn(C(=O)NS(=O)(=O)c2cccc(Cl)c2I)c(=O)n1C1CC1 [Compound 1.832] | very good herbicidal action | very good herbidical action
24 | CCOc1nn(C(=O)NS(=O)(=O)c2cccc(Cl)c2I)c(=O)n1C1CC1 [Compound 1.833] | very good herbicidal action | very good herbidical action
25 | CCCOc1nn(C(=O)NS(=O)(=O)c2cccc(Cl)c2I)c(=O)n1C1CC1 [Compound 1.834] | very good herbicidal action | very good herbidical action
26 | COc1nn(C(=O)NS(=O)(=O)c2cc(C(F)(F)F)ccc2I)c(=O)n1C [Compound 1.835] | very good herbicidal action | very good herbidical action
27 | CCOc1nn(C(=O)NS(=O)(=O)c2cc(C(F)(F)F)ccc2I)c(=O)n1C [Compound 1.836] | very good herbicidal action | very good herbidical action
28 | CCCOc1nn(C(=O)NS(=O)(=O)c2cc(C(F)(F)F)ccc2I)c(=O)n1C [Compound 1.837] | very good herbicidal action | very good herbidical action
29 | CC(C)Oc1nn(C(=O)NS(=O)(=O)c2cc(C(F)(F)F)ccc2I)c(=O)n1C [Compound 1.838] | very good herbicidal action | very good herbidical action
30 | COc1nn(C(=O)NS(=O)(=O)c2cc(C(F)(F)F)ccc2I)c(=O)n1C1CC1 [Compound 1.839] | very good herbicidal action | very good herbidical action
31 | CCOc1nn(C(=O)NS(=O)(=O)c2cc(C(F)(F)F)ccc2I)c(=O)n1C1CC1 [Compound 1.840] | very good herbicidal action | very good herbidical action
32 | CCCOc1nn(C(=O)NS(=O)(=O)c2cc(C(F)(F)F)ccc2I)c(=O)n1C1CC1 [Compound 1.841] | very good herbicidal action | very good herbidical action
33 | COc1nn(C(=O)NS(=O)(=O)c2c(Cl)cc(C(F)(F)F)cc2I)c(=O)n1C [Compound 1.842] | very good herbicidal action | very good herbidical action
34 | CCOc1nn(C(=O)NS(=O)(=O)c2c(Cl)cc(C(F)(F)F)cc2I)c(=O)n1C [Compound 1.843] | very good herbicidal action | very good herbidical action
35 | CCCOc1nn(C(=O)NS(=O)(=O)c2c(Cl)cc(C(F)(F)F)cc2I)c(=O)n1C [Compound 1.844] | very good herbicidal action | very good herbidical action
36 | CC(C)Oc1nn(C(=O)NS(=O)(=O)c2c(Cl)cc(C(F)(F)F)cc2I)c(=O)n1C [Compound 1.845] | very good herbicidal action | very good herbidical action
37 | COc1nn(C(=O)NS(=O)(=O)c2c(Cl)cc(C(F)(F)F)cc2I)c(=O)n1C1CC1 [Compound 1.846] | very good herbicidal action | very good herbidical action
38 | CCOc1nn(C(=O)NS(=O)(=O)c2c(Cl)cc(C(F)(F)F)cc2I)c(=O)n1C1CC1 [Compound 1.847] | very good herbicidal action | very good herbidical action
